# Reference: publication PMC3679022, “A Cancer Specific Cell-Penetrating Peptide, BR2, for the Efficient Delivery of an scFv into Cancer Cells” (PLoS ONE, 2013)
# Residues, ends and D or L forms follow the SMILES beside them.
# Experiments:
# [1] = system: HCT116 cells (K-ras mutated cells); assay: Cell proliferation assay (MTT); type: cell-based, human; parameters: dose or concentration left out as unconfirmed; settings: same concentrations as fusion proteins (Fig. S4:), 24 h
# Experimental: To assess the anti-proliferative activity of peptides and anti-Ras scFv fusion proteins, HCT116 cells (K-ras mutated cells) were seeded in 96-well plates at a density of 2×10^4 cells/well in 100 µL of DMEM supplemented with 10% FBS and cultured for 24 h at 37°C. […] Cell viability was measured with the 3-(4,5-dimethylthiazol-2-yl)-2,5-diphenyl tetrazolium bromide (MTT) assay using the CellTiter 96® Non-radioactive Cell Proliferation assay kit (Promega, Madison, WI) according to the manufacturer’s instructions. The absorbance of the solution was measured at 570 nm using a Microplate Reader (Bio-Rad). Cell viability was expressed as the percentage of viable cells treated with scFv or peptide-scFv fusion proteins compared to the PBS-treated control (100%). All experiments were done in triplicate.
# Figure 4 Intracellular uptake of peptides and anti-Ras scFv fusion proteins and their anti-proliferative activity. […] (B) Protein uptake was analyzed by Western blotting of fractionated lysates from HCT116 cells treated with PBS, anti-Ras scFv, BR2- or Tat-scFv fusion protein (each, 2 µM) at 37°C for 2 h. […] Cell proliferation was determined using the MTT assay. […]
# HCT116 cells were seeded in 96-well plates at a density of 2×10^4 cells/well in 100 μl of DMEM supplemented with 10% FBS and cultured for 24 h at 37°C. […] The absorbance of the solution was measured at 570 nm using a Microplate Reader (Bio-Rad). […]
# [2] = system: HeLa cells; type: cell-based, human; settings: FACS
# Experimental: To evaluate the internalization of FITC-labeled peptides, HeLa cells were seeded onto 12-well plates at a density of 2×10^5 cells per well and incubated for 24 h. FITC-labeled peptides, at various concentrations ranging from […], were then incubated with the cells for 30 min at 37°C. To compare the cellular uptake of peptides, cancer and normal cells were treated with FITC-labeled peptides (each, 10 µM) and incubated for 30 min at 37°C. Following the incubation, cells were washed three times with ice-cold PBS to remove excess extracellular complexes. Next, the cells were treated with trypsin (1 mg/ml) for 10 min to remove any remaining peptides bound to the cell surface. After trypsinization, the cells were collected by centrifugation (1,000×g for 5 min), resuspended with 500 µl ice-cold 2% FBS/PBS containing propidium iodide (PI), and then immediately analyzed (10,000 events/sample) by fluorescence activated cell sorting (FACS).
# To understand further the cell-penetrating mechanism of peptides, the effects of temperature and metabolic inhibitors were examined. To elucidate the temperature dependency, HeLa cells were incubated at 4°C for 30 min prior to the addition of the peptides. Next, cells were treated with FITC-labeled peptides (each, 5 µM) at 4°C for 30 min. For the energy-depletion study, HeLa cells were preincubated with sodium azide (NaN3, 10 mM) at 37°C for 1 h and then incubated with FITC-labeled peptides (each, 5 µM) at 37°C for 30 min.
# To study the role of endocytosis in peptide uptake, cells were pretreated with several endocytosis inhibitors at 37°C for 1 h: (i) amiloride (5 mM), which is known to block macropinocytosis by inhibiting a sodium channel; (ii) nocodazole (100 ng/ml), which inhibits the clathrin-mediated pathway; and (iii) methyl-ß-cyclodextrin (MßCD, 5 mM), which inhibits lipid raft-mediated processes by depleting cholesterol from the plasma membrane. All inhibitors were purchased from Sigma (St. Louis, MO).
# To examine the effects of negatively charged components on the cell surface for peptide internalization, HeLa cells were pretreated with gangliosides (monosialoganglioside GM3 from canine blood), heparin sulfate, or sialic acid (Neu5Ac, all from Sigma) (20 µg/ml) for 30 min. For the inhibition of ganglioside biosynthesis, cells were pretreated with D-threo-1-phenyl-2-hexadecanoyl amino-3-morpholino-1-propanol (PPMP, 5 µM) for 48 h.
# For all of these experimental conditions, flow cytometry analyses were performed with live cells using a Becton Dickinson FACSCalibur flow cytometer (BD Biosciences, San Diego, CA). In each case, the fluorescence of 10,000 viable cells was acquired. Viable cells were gated based on a sideward and forward scatter. For data analysis, WinMDI software (Joe Trotter, Scripps Research Institute, La Jolla, CA) was used. The statistical significance was evaluated by Student’s t-test at a 95% confidence interval.
# Figure 2 BR2 specifically penetrates cancer cell membranes in a concentration-dependent manner. (A) Analysis of the cell-penetrating efficiency of each peptide in different cell types by flow cytometry. FITC-labeled Tat, BR1 and BR2 peptides (10 µM) were added to different cell types: HeLa, HCT116 and B16/F10 cancer cells and HaCat, BJ and NIH 3T3 normal cells. After 30 min of incubation at 37°C, the FITC-positive cells were counted by flow cytometry. Values represent the percentage of fluorescence-positive cells in the total cell population. (B) Quantitative assessment of cell penetration of each peptide by flow cytometry. HeLa cells were incubated with FITC-labeled peptides at concentrations of 1, 2, 5, or 10 µM for 30 min at 37°C. Afterwards the cells were washed with cold PBS and harvested and cellular fluorescence was analyzed by flow cytometry. […] Prior to analysis, extracellular fluorescence of surface bound peptides was removed by a trypsin treatment (1 mg/ml for 10 min). […]
# [3] = system: HCT116 cells; assay: Detection of apoptosis by annexin V-FITC / 7-AAD flow cytometry; type: cell-based, human; settings: proteins 2 µM, staurosporine 0.5 µM, 24 h
# Experimental: In addition, apoptotic cells were identified by staining with annexin V-FITC (150 ng/ml) and 7 amino-actinomycin D (7-AAD; BD Biosciences, San Diego, CA). 1×10^6 HCT116 cells were treated with PBS, staurosporine (0.5 µM), or peptide-fused scFvs (each, 2 µM) as described above. At the designated time, cells were washed twice with PBS (pH 7.4), harvested and resuspended in 500 µl of binding buffer supplemented with Annexin-V fluos (1∶100 diluted; BioBud, Seoul, Korea), and incubated for 15 min at 25°C in the dark. To detect necrosis, 7AAD was added prior to measurement. Samples were immediately subjected to FACS analysis with a FACSCalibur flow cytometer (FL1 and FL3) and WinMDI software (Joe Trotter, Scripps Research Institute). 1×10^4 cells per sample were analyzed by flow cytometry.
# Figure 5 The BR2-anti-Ras scFv fusion protein promotes apoptosis by blocking Ras signaling in Ras-mutated HCT116 cells. […] The numbers on the top of the quadrants indicate the percentage of apoptotic and late apoptotic/necrotic cells counted from dot plots taken from one representative experiment, performed in triplicate. […] Changes in Ras activity level in HCT116 cells treated with anti-Ras scFv and BR2- and Tat-scFv fusion proteins (each, 1 and 2 µM) were determined by an ELISA-based activity assay; results are expressed as relative Ras activity (%). […]
# [4] = system: human erythrocytes; type: cell-based; settings: 25 µM, pH 7.4
# Experimental: Hemolytic activity was assayed as described by Aboudy et al. with slight modifications; 3 ml of freshly prepared human erythrocytes was washed with isotonic PBS, pH 7.4, until the color of the supernatant turned clear. The washed erythrocytes were then diluted to a final volume of 20 ml with the same buffer. Peptide samples (10 µl), serially diluted in PBS, were added to 190 µl of the cell suspension in microcentrifuge tubes. Following gentle mixing, the tubes were incubated at 37°C for 30 min and then centrifuged at 4,000×g for 5 min. The supernatant (100 µl) was removed to a new tube and the absorbance at 567 nm was determined. The relative optical density, as compared with that of the cell suspension treated with 0.2% Triton X-100, was defined as percentage of hemolysis. The hemolysis percentage was calculated using the following equation: percentage hemolysis = [(Abs 567 nm in the peptide solution – Abs 567 nm in PBS)/(Abs 567 nm in 0.2% Triton X-100 – Abs 567 nm in PBS)]×100.
# (B,C) In vitro cytotoxicity of peptides.
compound,measurement,setting,value
"RKKRRQRRR [Tat, well-known CPP Tat (49–57), reference compound]",anti-proliferative activity of peptide alone,[1],did not show any detectable inhibitions
same,decrease of cellular uptake at 4°C compared to 37°C,"[2]; FITC-labeled peptide 5 µM, 30 min at 4°C after preincubation at 4°C",31.6%
same,reduction of uptake by ATP depletion (sodium azide),"[2]; NaN3 10 mM preincubation 1 h 37°C, then FITC-labeled peptide 5 µM 30 min 37°C",42.5%
same,effect of ganglioside synthesis inhibitor PPMP on peptide uptake,[2]; PPMP 5 µM pretreatment 48 h,not
same,effect of exogenous gangliosides on peptide penetration,"[2]; gangliosides (GM3) 20 µg/ml, 30 min",not affected
same,effect of exogenous heparin on peptide uptake,"[2]; heparin 20 µg/ml, 30 min",severely reduced
same,effect of exogenous sialic acids on peptide penetration,"[2]; sialic acid (Neu5Ac) 20 µg/ml, 30 min",not affected
CN[C@@H]1C[C@H]2O[C@@](C)([C@@H]1OC)n1c3ccccc3c3c4c(c5c6ccccc6n2c5c31)C(=O)NC4 [staurosporine],cells in the apoptotic stage (apoptotic and late apoptotic/necrotic),[3],61.6%
"CC(C)C[C@H](NC(=O)CNC(=O)[C@H](C)NC(=O)[C@@H](N)CCCNC(=N)N)C(=O)N[C@@H](CCC(N)=O)C(=O)N[C@@H](Cc1ccccc1)C(=O)N1CCC[C@H]1C(=O)N[C@H](C(=O)NCC(=O)N[C@@H](CCCNC(=N)N)C(=O)N[C@@H](CC(C)C)C(=O)N[C@@H](CC(C)C)C(=O)N[C@@H](CCCNC(=N)N)C(=O)N[C@@H](CCCNC(=N)N)C(=O)N[C@@H](CC(C)C)C(=O)N[C@@H](CC(C)C)C(=O)N[C@@H](CCCNC(=N)N)C(=O)N[C@@H](CCCNC(=N)N)C(=O)N[C@@H](CC(C)C)C(=O)N[C@@H](CC(C)C)C(=O)N[C@@H](CCCNC(=N)N)C(=O)O)C(C)C [BR3, buforin IIb] (H-RAGLQFPVGRLLRRLLRRLLR-OH)",hemolysis,[4],≥ 5%
